# Data published in patent US20070145619A1, “Processes for producing microencapsulated delivery vehicles” (Kimberly-Clark Worldwide, Inc., priority 2005, published 2007).
# Where two headings read alike, the source gives them in different places.
# Experiments:
# [1] = test system: Methicillin-resistant Staphylococcus aureus; settings: for LOG10 Reduction: 0.005% PHMB vs no PHMB; for LOG10 Reduction / Total CFU Recovered MRSA: 10-minute contact time; for Total CFU Recovered MRSA: 0.005% PHMB, 5% bovine serum albumin soil, n = 2
# Experimental: This Example utilized 1.5-milliliter tubes containing a 1-milliliter blend of phosphate-buffered saline (pH 7.2) and 5% (w/v) bovine serum albumin soil. The tubes were placed in electric heat blocks set for 22° C., 30° C., 40° C. and 50° C., respectively. The tubes remained in the electric heat blocks for approximately 10 minutes.
# After 10 minutes, 0.005% (by weight) active polyhexamehtylene biguanide (PHMB) (commercially available as Cosmocil® CQ from Arch Biocides, Inc., United Kingdom) was added to two tubes at each temperature level. Duplicate tubes without PHMB at each temperature were also made.
# The tubes were then vortexed and Methicillin-resistant Staphylococcus aureus (approximately 1×10^5 colony forming units (CFU)) was then added to each tube. All of the tubes were then placed back into the heat blocks at their respective temperatures.
# Following a 10-minute contact time, 0.1 milliliters of each sample was transferred to 0.9 milliliters letheen broth to neutralize the PHMB activity. The letheen samples were then plated in duplicate on Tryptic Soy agar plates using a WASP2 spiral plater (commercially available from Don Whitley Scientific, Ltd., Yorkshire, United Kingdom). The plates were inverted and incubated at 37±2° C. for 48 hours.
# After 48 hours, the plates were evaluated using a total plate count to determine the biocidal efficacy of each sample.
# Staphylococcus aureus = test: Biocidal efficacy of magnesium chloride in combination with PHMB, total plate count; format: cell-based; settings: 15-minute contact time
# Experimental: A 1.5-milliliter tube was prepared using magnesium chloride in water.
# Two control samples were also prepared. One control sample was filled with 0.850 milliliters magnesium chloride. A second control sample was prepared by introducing 0.850 milliliters sterile water.
# The tubes were then vortexed until an increase in temperature was observed.
# 0.05 milliliters of 1×10^7 CFU/milliliter culture of Staphylococcus aureus was added to each tube. After a 15-minute contact time, 0.1 milliliters of each tube was transferred into 0.9 milliliters letheen broth. To the broth, 10 milligrams/milliliter sodium thiosulfate was also added. The tubes were again vortexed. After vortexing, 0.1 milliliters of each tube was plated on Tryptic soy agar plates. The plates were inverted and incubated at 37° C. for 24 hours. An inoculum control plate was also plated to determine the concentration of the inoculum
# After 24 hours, the plates were evaluated using a total plate count to determine the biocidal efficacy of each sample.
# [2] = Heat generation after soaking in de-ionized water; format: physicochemical; settings: 0.73 grams added to 7.0 grams de-ionized water, no protective layer; FIG. 6
# Experimental: Four samples of the calcium chloride particles including a moisture protective layer were then analyzed for their ability to generate heat after exposure to water. A control sample (calcium chloride) was also tested for heat generating capabilities and compared to the four samples of calcium chloride having a moisture protective layer.
# To analyze the samples for heat generation, 0.80 grams of each sample of calcium chloride including a moisture protective layer was added to four separate vials each containing 7.0 grams of de-ionized water and 0.73 grams of the control sample was added to a fifth vial containing 7.0 grams of de-ionized water. Using a J type thermocouple (commercially available from Omega Engineering, Inc., Stamford, Conn.) and a data logger, the temperature of the samples was measured over a period of 180 seconds. The four vials containing the samples of microencapsulated heat delivery vehicle including a moisture protective layer were allowed to remain in the de-ionized water for 0.5 hours, 1.0 hour, 1.5 hours, and 2.0 hours, respectively, at which time the samples were activated by crushing the samples by hand using a metal rod. The temperature of the water in the four vials was measured for a period of 180 seconds after crushing the samples.
# [3] = particle size less than 250 micrometers, compared with three other size ranges; 35 wt % in mineral oil added to 7.0 grams de-ionized water; FIG. 4
# Experimental: In this example, samples incorporating various size ranges of anhydrous magnesium chloride suspended in mineral oil at 35 wt % were evaluated for their ability to generate heat upon introduction into water.
# The four size ranges of anhydrous magnesium chloride evaluated were: (1) 1000-1500 microns; (2) 600-1000 microns; (3) 250-600 microns; and (4) less than 250 microns. To produce the samples of anhydrous magnesium chloride in mineral oil, the various size ranges of anhydrous magnesium chloride powder (Magnesium Interface Inc. (Vancouver, B.C., Canada) were suspended at 35 wt % in mineral oil (available as Drakeol 7 LT NF from Penreco, Dickinson, Tex.). To produce the samples having anhydrous magnesium chloride with size ranges of 1000-1500 microns, 600-1000 microns, and 250-600 microns, the as received anhydrous magnesium chloride powder was hand screened into the size ranges desired and the powders collected. These powders were suspended at 35 wt % in mineral oil using a cowles mixing blade. […]
# All four samples were then added to 7.0 grams de-ionized water and the resulting temperature rise was measured using a J type Thermocouple (available from Omega Engineering, Inc., Stamford, Conn.).
# [4] = particle size 149-355 micrometers, compared with four other size ranges; 35 wt % in mineral oil added to 7.0 grams de-ionized water; FIG. 3
# Experimental: In this example, samples incorporating various size ranges of anhydrous calcium chloride suspended in mineral oil at 35 wt % were evaluated for their ability to generate heat upon introduction into water.
# The five size ranges of anhydrous calcium chloride evaluated were: (1) less than 149 microns; (2) 149-355 microns; (3) 710-1190 microns; (4) 1190-2000 microns; and (5) 2000-4000 microns. The samples of anhydrous calcium chloride (Dow Chemical, Midland, Mich.) were dispersed in mineral oil (available as Drakeol 7 LT NF from Penreco, Dickinson, Tex.). The as received anhydrous calcium chloride were screened dry using a Gilson Sonic Sieve (Gilson Company, Inc. Columbus, Ohio) to create two sizes, a 1190-2000 micron size and a 2000-4000 micron size. These powders were then suspended at 35 wt % in mineral oil to form a slurry using a cowles mixing blade. To achieve the smaller size distributions, the anhydrous calcium chloride powder required further processing. […]
# All five samples were then individually added to 7.0 grams de-ionized water and the resulting temperature rise was measured using a Barnant Scanning Thermocouple (available from Therm-X of California, Hayward, Calif.).
compound,measurement,setting,value
polyhexamethylene biguanide [PHMB],difference in efficacy between 22° C. and 50° C.,[1]; 0.005% (by weight) active PHMB,greater than 1.4 LOG10
same,LOG10 Reduction,[1]; 22° C.,2.1 LOG10
same,Total CFU Recovered MRSA,[1]; 22° C.,3.5 CFU
same,LOG10 Reduction,[1]; 30° C.,2.8 LOG10
same,Total CFU Recovered MRSA,[1]; 30° C.,2.9 CFU
same,LOG10 Reduction,[1]; 40° C.,3.5 LOG10
same,Total CFU Recovered MRSA,[1]; 40° C.,2.1 CFU
same,LOG10 Reduction,[1]; 50° C.,>3.5 LOG10
same,Total CFU Recovered MRSA,[1]; 50° C.,<2 CFU
same,LOG10 recovered,"Staphylococcus aureus; PHMB 0.00025%, magnesium chloride 0%",4.8 LOG10
"[Ca+2].[Cl-].[Cl-] [Example 11 control sample, calcium chloride]",heat production in water,[2],produced heat immediately upon being introduced into water but only for a short period of time
"[Cl-].[Cl-].[Mg+2] [Magnesium Chloride, magnesium chloride]",rate of heat generation,[3],highest rate
same,LOG10 recovered,"Staphylococcus aureus; PHMB 0%, magnesium chloride 50%",1.9 LOG10
"[Ca+2].[Cl-].[Cl-] [anhydrous calcium chloride, calcium chloride]",rate of heat generation,[4],highest rate
